The values below come from US6596687B1, “Cell adhesion inhibitors” (Biogen, Inc., priority 1995, dated 2003).

What is called IC50 is the concentration needed to halve the response being measured.

Numbered stars: 1 amine (or outer) side, 2 acyl side, 3 side chain; on linkers, the order of the positions; unused ones are H or OH. Square brackets hold non-standard residues; d marks the D form. Peptide text beside a SMILES is read from it. * marks the point of attachment. X3 = COc1cc(CC(=O)[*:2])ccc1N[*:1]; X2 = O=C(Cc1ccc(N[*:1])cc1)[*:2]; PhAc = O=C(Cc1ccccc1)*; CO = O=C([*:1])[*:2]; NHPh = c1ccc(N*)cc1; Bn = c1ccc(C*)cc1; X1 = Oc1ccccc1N* Some results are limits rather than exact numbers.

T1 sequence (P13612 34-1032): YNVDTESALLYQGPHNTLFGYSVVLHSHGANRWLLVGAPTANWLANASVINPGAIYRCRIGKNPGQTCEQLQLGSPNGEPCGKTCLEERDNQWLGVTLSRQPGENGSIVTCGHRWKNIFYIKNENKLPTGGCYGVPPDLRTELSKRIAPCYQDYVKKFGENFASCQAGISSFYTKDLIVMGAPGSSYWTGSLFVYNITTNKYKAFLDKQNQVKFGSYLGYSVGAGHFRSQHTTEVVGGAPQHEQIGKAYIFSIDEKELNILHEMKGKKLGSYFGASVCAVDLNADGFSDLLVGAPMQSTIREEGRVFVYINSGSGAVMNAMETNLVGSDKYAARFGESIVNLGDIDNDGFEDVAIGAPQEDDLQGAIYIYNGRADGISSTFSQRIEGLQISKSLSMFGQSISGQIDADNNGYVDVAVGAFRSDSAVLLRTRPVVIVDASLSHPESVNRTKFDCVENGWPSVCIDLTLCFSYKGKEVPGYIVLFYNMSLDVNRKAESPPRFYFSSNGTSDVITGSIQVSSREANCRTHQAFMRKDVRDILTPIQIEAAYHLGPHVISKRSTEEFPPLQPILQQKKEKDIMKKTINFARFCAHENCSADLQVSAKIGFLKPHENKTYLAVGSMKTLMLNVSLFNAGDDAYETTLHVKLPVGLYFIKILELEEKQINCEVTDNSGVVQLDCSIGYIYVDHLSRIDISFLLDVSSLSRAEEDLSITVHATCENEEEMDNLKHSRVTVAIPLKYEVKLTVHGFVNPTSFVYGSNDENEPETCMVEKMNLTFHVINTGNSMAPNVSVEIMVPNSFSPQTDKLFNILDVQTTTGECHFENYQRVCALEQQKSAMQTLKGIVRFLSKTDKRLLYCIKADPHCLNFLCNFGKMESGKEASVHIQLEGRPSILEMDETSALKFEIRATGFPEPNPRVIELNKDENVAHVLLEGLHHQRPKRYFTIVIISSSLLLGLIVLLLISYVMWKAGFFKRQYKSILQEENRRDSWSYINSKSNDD
T1 sequence (P05556 21-798): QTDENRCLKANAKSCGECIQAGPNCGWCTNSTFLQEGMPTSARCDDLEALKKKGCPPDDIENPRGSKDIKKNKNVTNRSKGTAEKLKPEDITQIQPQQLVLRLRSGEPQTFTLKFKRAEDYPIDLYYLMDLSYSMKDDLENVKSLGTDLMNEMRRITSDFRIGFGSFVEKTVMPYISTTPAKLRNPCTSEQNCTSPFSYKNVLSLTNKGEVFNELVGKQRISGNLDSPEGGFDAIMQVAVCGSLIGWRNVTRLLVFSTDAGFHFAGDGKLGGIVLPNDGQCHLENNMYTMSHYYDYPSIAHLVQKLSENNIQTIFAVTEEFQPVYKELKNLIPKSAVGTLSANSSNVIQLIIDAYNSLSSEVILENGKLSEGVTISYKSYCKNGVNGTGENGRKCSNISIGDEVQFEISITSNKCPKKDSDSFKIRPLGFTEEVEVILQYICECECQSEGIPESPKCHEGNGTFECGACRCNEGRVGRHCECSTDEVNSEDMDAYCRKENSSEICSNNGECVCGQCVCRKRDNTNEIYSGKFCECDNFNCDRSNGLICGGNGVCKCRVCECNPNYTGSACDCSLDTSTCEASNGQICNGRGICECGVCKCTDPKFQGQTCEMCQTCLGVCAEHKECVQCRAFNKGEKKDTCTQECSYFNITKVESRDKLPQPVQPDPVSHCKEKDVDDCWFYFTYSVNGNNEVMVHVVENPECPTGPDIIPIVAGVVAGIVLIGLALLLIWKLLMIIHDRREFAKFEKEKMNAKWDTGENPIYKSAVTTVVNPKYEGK

This test addresses T1, VLA4 (Homo sapiens, UniProt P05556+P13612).
T1 construct: endogenous in cells; host or cells: Ramos cells
In words: Inhibition of VLA4-dependent adhesion of Ramos cells to BSA-CS1. The note with it: Ramos cells, BSA-CS1 coated wells, 2 mM MnCl2, 30 minutes at room temperature; read-out: IC50. It counts as cell-based. The source says: For example, the cell adhesion inhibitory activity of these compounds may be measured by determining the concentration of inhibitor required to block the binding of VLA-4-expressing cells to fibronectin- or CS1-coated plates. In this assay microtiter wells are coated with either fibronectin (containing the CS1-sequence) or CS-1. If CS-1 is used, it must be conjugated to a carrier protein, such as bovine serum albumin, in order to bind to the wells. Once the wells are coated, varying concentrations of the test compound are then added together with appropriately labelled, VLA-4-expressing cells. Alternatively, the test compound may be added first and allowed to incubate with the coated wells prior to the addition of the cells. The cells are allowed to incubate in the wells for at least 30 minutes. Following incubation, the wells are emptied and washed. Inhibition of binding is measured by quantitating the fluorescence or radioactivity bound to the plate for each of the various concentrations of test compound, as well as for controls containing no test compound.
VLA-4-expressing cells that may be utilized in this assay include Ramos cells, Jurkat cells, A375 melanoma cells, as well as human peripheral blood lymophocytes (PBLs). The cells used in this assay may be fluorescently or radioactively labelled.
This assay was used to assess the potency of VLA4-directed inhibitory compounds of this invention. 1.
We dissolved BSA-SMCC (Pierce Chemical, Rockford, Ill.; Catalog #77115) in H2O at a concentration of 10 mg/mL. [SEQ ID NO:4]: […](“Cys-Tyr-CS1 peptide”), which we synthesized by conventional solid phase chemistry and purified by HPLC, was dissolved in 10 mM HEPES pH 5, 50 mM NaCl and 0.1 mM EDTA also at a concentration of 10 mg/mL. We then mixed 500 μL of BSA-SMCC, 250 μL of Cys-Tyr-CS1 peptide and 75 μL of 1 mM HEPES pH 7.5 and allowed the conjugation reaction to proceed for 30 minutes. We stopped the reaction by adding 1 μL of beta-mercaptoethanol. Samples were analyzed for cross-linking by SDS-PAGE.
We coated the wells of a Linbro titertek polystyrene 96-well flat bottom plate (Flow Laboratories, Maclean, Va.; catalog #76-231-05) with 100 μL of the above-described BSA-CS1 solution diluted to 1 μg/mL in 0.05 M NaHCO3 (15 mM NaHCO3, 35 mM Na2CO3) pH 9.2. Some wells were not coated with CS1 in order to assess non-specific cell binding (NSB). The plate was then incubated overnight at 4° C.
Following this incubation, the contents of the wells were removed by inverting and blotting the plate. All of the wells were then blocked with 100 μL of 1% BSA in PBS, 0.02% NaN3, for a minimum of one hour at room temperature.
Ramos cells are grown, maintained and labelled in RPMI 1640 culture medium containing 1% BSA. Just prior to running the assay, we added 2′, 7′-bis-(2-carboxyethyl)-5(and -6)carboxyfluorescein acetoxymethyl ester (“BCECF-AM”; Molecular Probes Inc., Eugene, Oregon; catalog #B-1150) to a final concentration of 2 μM to a culture of Ramos cells (4×10^6 cells/mL). We incubated the cells for 20 minutes at 37° C.
Following labelling, the cells were washed twice in assay buffer (24 mM TRIS, 137 mM NaCl, 2.7 mM KCl, pH 7.4, containing 0.1 BSA and 2mM glucose) to remove any cations originating from the culture medium. The cells were then resuspended in assay buffer to 4×10^6 cells/mL and 2 mM MnCl2 was added to upregulate VLA4 on the surface of the cells.
Immediately prior to running the assay, we removed the BSA blocking solution from the 96-well plates and washed the wells with 100 μL of assay buffer. We then added to each well 25 μL of test cell adhesion inhibitory compound at 2×the final concentration and 25 μL of the labelled Ramos cells. […] Each concentration of compound was tested in triplicate. The compound and cells are allowed to incubate for 30 minutes at room temperature.
For the compound `CNC(=O)[C@@H](NC(=O)[C@H](CC(=O)O)NC(=O)[C@H](CC(C)C)NC(=O)Cc1ccc(NC(=O)Nc2ccccc2)cc1)C(C)C` [Compound 204], the 50% inhibitory concentration (IC50) lay within 0.05 to 10 µM. Next, `CC(C)C[C@H](NC(=O)c1cc2ccccc2cn1)C(=O)N[C@@H](CO)C(=O)N[C@H](C(=O)O)C(C)C` [Compound 7]: > 10 µM; `CCCCNC(=O)[C@@H](NC(=O)[C@H](CC(=O)O)NC(=O)[C@H](CC(C)C)NC(=O)OC(C)(C)C)[C@@H](C)O` [Compound 354] (HELM PEPTIDE1{[CC(C)(C)OC(=O)[*:2]].L.D.T.[CCCCN[*:1]]}$$$$V2.0): > 10 µM; `COC(=O)[C@@H](NC(=O)[C@H](CC(=O)O)NC(=O)[C@H](CC(C)C)NC(=O)Cc1ccccc1)[C@@H](C)O` [Compound 191] (HELM PEPTIDE1{[O=C(Cc1ccccc1)[*:2]].L.D.T.[CO[*:1]]}$$$$V2.0): > 10 µM. Next, `CNC(=O)[C@@H](NC(=O)[C@H](CC(=O)O)NC(=O)[C@H](CC(C)C)N(C)C(=O)c1ccc2ccccc2n1)C(C)C` [Compound 179]: > 10 µM; `CC(C)C[C@H](NC(=O)C1CCc2ccccc2N1)C(=O)N[C@@H](CC(=O)O)C(=O)N[C@H](C(=O)Nc1ccccc1)C(C)C` (stereo partly shown) [Compound 124]: > 10 µM. Regarding `CC(C)C[C@H](NC(=O)CCCc1ccccc1)C(=O)N[C@@H](CC(=O)O)C(=O)N[C@H](C(=O)O)C(C)C` [Compound 155], the IC50 is > 10 µM. Regarding `CC(C)C[C@H](NC(=O)CCc1ccccc1)C(=O)N[C@@H](CC(=O)O)C(=O)N[C@H](C(=O)O)C(C)C` [Compound 64] (HELM PEPTIDE1{[O=C(CCc1ccccc1)[*:2]].L.D.V}$$$$V2.0), the IC50 is > 10 µM. Next, `Cc1ccccc1NC(=O)Nc1ccc(CC(=O)N[C@@H](CC(C)C)C(=O)N[C@@H](CCC(=O)O)C(=O)N[C@H](C(N)=O)C(C)C)cc1` [Compound 311]: < 0.05 µM; `CC(C)CNC(=O)[C@@H](CC(=O)O)NC(=O)[C@H](CC(C)C)NC(=O)CCc1ccc(O)cc1` [Compound 15]: > 10 µM. Next, `CCC(C)C(NC(=O)CCc1ccc(O)cc1)C(=O)NC(CC(=O)O)C(=O)NCC(C)C` (stereo not shown) [Compound 17]: > 10 µM; `CNC(=O)[C@@H](NC(=O)[C@H](CC(=O)O)NC(=O)[C@H](CC(C)C)NS(=O)(=O)c1ccccc1)C(C)C` [Compound 189]: > 10 µM; `COC(=O)[C@@H](NC(=O)[C@H](CC(=O)O)NC(=O)[C@H](CC(C)C)NC(=O)Cc1ccc(OC)cc1)[C@@H](C)O` [Compound 176]: > 10 µM. Next, `CC(C)C[C@H](NC(=O)CC(c1ccccc1)c1ccccc1)C(=O)N[C@@H](CC(=O)O)C(=O)N[C@H](C(=O)O)C(C)C` [Compound 95]: > 10 µM; `CSCC[C@H](NC(=O)[C@H](CC(=O)O)NC(=O)[C@H](CCC(N)=O)NC(=O)Cc1ccc(NC(=O)Nc2ccccc2C)cc1)C(N)=O` [Compound 303]: < 0.05 µM; `CC(C)C[C@H](NC(=O)c1cc2ccccc2cn1)C(=O)N[C@@H](CCC(=O)O)C(=O)N[C@H](C(=O)O)C(C)C` [Compound 5]: > 10 µM. Turning to `Cc1ccccc1NC(=O)Nc1ccc(CC(=O)N[C@@H](CO)C(=O)N[C@@H](CC(=O)O)C(=O)N[C@@H](CC(C)C)C(N)=O)cc1` [Compound 276], the 50% inhibitory concentration (IC50) is < 0.05 µM. Next, `CNC(=O)[C@@H](NC(=O)[C@H](CC(=O)O)NC(=O)[C@H](CC(C)C)N(C)C(=O)c1ccccn1)C(C)C` [Compound 126]: > 10 µM; `COc1cc(CC(=O)N[C@@H](CC(C)C)C(=O)N[C@@H](CC(=O)O)C(=O)N[C@H](C(=O)N2CCC[C@H]2C(=O)O)C(C)C)ccc1NC(=O)Nc1ccccc1` [Compound 1] ({NHPh-CO}-[X3]LDVP-OH): < 0.05 µM; `CSCC[C@H](NC(=O)Cc1ccc(NC(=O)Nc2ccccc2O)cc1)C(=O)N[C@@H](CC(=O)O)C(=O)N[C@H](C(=O)N1CCC[C@H]1C(=O)O)C(C)C` [Compound 146] ({X1-CO}-[X2]MDVP-OH): < 0.05 µM.

`CC(C)C[C@H](NC(=O)c1ccc2ccccc2n1)C(=O)N[C@@H](CC(=O)O)C(=O)N[C@@H](CC(=O)O)C(=O)O` [Compound 160]: the IC50 was > 10 µM. Next, `CCCCCCNC(=O)[C@H](CC(=O)O)NC(=O)[C@H](CC(C)C)NC(=O)CCc1ccc(O)cc1` [Compound 116]: > 10 µM; `CNC(=O)[C@@H](NC(=O)[C@H](CC(=O)O)NC(=O)[C@H](CCSC)NC(=O)Cc1ccccc1)C(C)C` [Compound 183] (HELM PEPTIDE1{[O=C(Cc1ccccc1)[*:2]].M.D.V.[CN[*:1]]}$$$$V2.0): > 10 µM; `CC(C)CNC(=O)[C@H](CC(=O)O)NC(=O)[C@H](CC(C)C)NC(=O)Cc1ccc(NC(=O)Nc2ccccc2)cc1` [Compound 217]: 0.05 to 10 µM. Next, `CC(C)[C@H](NC(=O)[C@H](CC(=O)O)NC(=O)c1ccccn1)C(=O)O` [Compound 78]: > 10 µM; `CC(C)[C@H](NC(=O)[C@H](CC(=O)O)NC(=O)[C@H](C)NC(=O)C1Cc2ccccc2CN1)C(=O)O` (stereo partly shown) [Compound 96] (HELM PEPTIDE1{[O=C(C1Cc2ccccc2CN1)[*:2]].A.D.V}$$$$V2.0): > 10 µM; `CC(C)CNC(=O)[C@H](CC(=O)O)NC(=O)[C@H](CC(C)C)NC(=O)c1ccccc1` [Compound 101]: > 10 µM. Next, `CNC(=O)[C@@H](NC(=O)[C@H](CC(=O)O)NC(=O)[C@H](CC(C)C)NC(=O)Cc1ccccc1)C(C)C` [Compound 181] (HELM PEPTIDE1{[O=C(Cc1ccccc1)[*:2]].L.D.V.[CN[*:1]]}$$$$V2.0): > 10 µM; `CC(C)CCNC(=O)[C@H](CC(=O)O)NC(=O)[C@H](CC(C)C)NC(=O)C1CCc2ccccc2N1` (stereo partly shown) [Compound 110]: > 10 µM. Regarding `CNC(=O)[C@@H](NC(=O)[C@H](CC(=O)O)NC(=O)[C@H](CC(C)C)N(C)C(=O)Cc1ccccc1)C(C)C` [Compound 180] (HELM PEPTIDE1{[O=C(Cc1ccccc1)[*:2]].[meL].D.V.[CN[*:1]]}$$$$V2.0), the concentration for half-maximal inhibition (IC50) lay in the range of 0.05 to 10 µM. Next, `CC(C)C[C@H](NC(=O)c1ccc2ccccc2n1)C(=O)N[C@@H](CC(=O)O)C(=O)N[C@H](C(=O)O)C(C)C` [Compound 94]: > 10 µM; `COc1cc(CC(=O)N[C@@H](CCSC)C(=O)N[C@@H](CC(=O)O)C(=O)N[C@H](C(=O)N2CCC[C@H]2C(=O)O)C(C)C)ccc1NC(=O)Nc1ccccc1` [Compound 2] ({NHPh-CO}-[X3]MDVP-OH): < 0.05 µM; `CC(C)C[C@H](NC(=O)Cc1ccc(NC(=O)Nc2ccccc2)cc1)C(=O)N[C@@H](CC(=O)O)C(=O)N1CCOCC1` [Compound 214]: 0.05 to 10 µM. For `COC(=O)[C@@H](NC(=O)[C@H](CC(=O)O)NC(=O)[C@H](CC(C)C)NC(=O)Cc1ccccc1)[C@@H](C)OCc1ccccc1` [Compound 192] (PhAc-Leu-Asp-Thr(Bn)-OMe), the IC50 is 0.05 to 10 µM. As for `CC(C)C[C@H](NC(=O)Cc1ccc(NC(=O)Nc2ccccc2)cc1)C(=O)N[C@@H](CC(=O)O)C(=O)NCc1ccccc1` [Compound 213], the half-inhibitory concentration (IC50) was in the range of 0.05 to 10 µM. Next, `CC[C@H](C)[C@H](NC(=O)Cc1ccc(NC(=O)Nc2ccccc2C)cc1)C(=O)N[C@@H](CC(=O)O)C(=O)N[C@@H](CCC(=O)O)C(N)=O` [Compound 290]: < 0.05 µM; `CC[C@H](C)[C@H](NC(=O)Cc1ccc(NC(=O)Nc2ccccc2C)cc1)C(=O)N[C@@H](CC(=O)O)C(=O)N[C@@H](CC(=O)O)C(N)=O` [Compound 286]: < 0.05 µM.
